Test results reported in the NIST ThermoML archive (doi:10.1016/j.jct.2007.07.002).

Settings: Gas, double Helmholtz acoustic resonator

N [ammonia]
Settings	kinematic viscosity [m2/s]	speed of sound [m/s]
300 K, 223.53 kPa	6.47e-06	431
300 K, 259.87 kPa	5.47e-06	429.55
300 K, 329.51 kPa	4.32e-06	428.07
300 K, 361.99 kPa	3.95e-06	426.77
300 K, 447.86 kPa	3.14e-06	424.67
300 K, 465.77 kPa	3.02e-06	423.73
300 K, 568.68 kPa	2.45e-06	421.02
300 K, 569.79 kPa	2.45e-06	420.63
300 K, 676.75 kPa	2.03e-06	417.61
300 K, 692.8 kPa	1.98e-06	416.7
300 K, 802.37 kPa	1.71e-06	413.01
300 K, 802.82 kPa	1.7e-06	413.38
315 K, 250.83 kPa	6.41e-06	441.42
315 K, 378.83 kPa	4.19e-06	438.52
315 K, 506.43 kPa	3.08e-06	435.46
315 K, 661.04 kPa	2.34e-06	431.69
315 K, 791.02 kPa	1.92e-06	428.35
315 K, 938.74 kPa	1.59e-06	424.43
315 K, 1080.9 kPa	1.36e-06	420.46
315 K, 1285 kPa	1.13e-06	414.39
330 K, 308.27 kPa	5.77e-06	450.9
330 K, 473.84 kPa	3.68e-06	447.68
330 K, 664.29 kPa	2.58e-06	443.84
330 K, 822.59 kPa	2.06e-06	440.54
330 K, 977.41 kPa	1.71e-06	437.21
330 K, 1142.1 kPa	1.44e-06	433.54
330 K, 1294.8 kPa	1.25e-06	430.01
330 K, 1480.5 kPa	1.08e-06	425.54
330 K, 1640.8 kPa	9.57e-07	421.5
330 K, 1792 kPa	8.66e-07	417.52
330 K, 1945.8 kPa	7.91e-07	413.28
345 K, 297.74 kPa	6.5e-06	461.31
345 K, 504.54 kPa	3.78e-06	457.91
345 K, 708.88 kPa	2.67e-06	454.47
345 K, 914.14 kPa	2.04e-06	450.88
345 K, 1123.2 kPa	1.64e-06	447.09
345 K, 1332.1 kPa	1.36e-06	443.17
345 K, 1537 kPa	1.16e-06	439.19
345 K, 1744.6 kPa	1e-06	435.01
345 K, 1955.1 kPa	8.8e-07	430.58
345 K, 2315.6 kPa	7.21e-07	422.55
345 K, 2530 kPa	6.5e-07	417.46
345 K, 2769 kPa	5.84e-07	411.45
360 K, 242.7 kPa	8.74e-06	471.71
360 K, 453.28 kPa	4.68e-06	468.86
360 K, 661.35 kPa	3.16e-06	465.91
360 K, 865.15 kPa	2.39e-06	462.91
360 K, 1069.7 kPa	1.9e-06	459.84
360 K, 1277.8 kPa	1.57e-06	456.62
360 K, 1481.2 kPa	1.34e-06	453.38
360 K, 1690.7 kPa	1.16e-06	449.97
360 K, 1894.8 kPa	1.02e-06	446.53
360 K, 2277.4 kPa	8.28e-07	439.83
360 K, 2480.7 kPa	7.49e-07	436.1
360 K, 2738.8 kPa	6.66e-07	431.2
360 K, 3050.5 kPa	5.85e-07	424.97
360 K, 3365.4 kPa	5.19e-07	418.3
375 K, 260.57 kPa	1.01e-05	480.64
375 K, 483.31 kPa	4.9e-06	478.26
375 K, 684.74 kPa	3.42e-06	475.65
375 K, 897.66 kPa	2.57e-06	473
375 K, 1130.7 kPa	1.96e-06	469.93
375 K, 1341.7 kPa	1.63e-06	467.14
375 K, 1583.8 kPa	1.37e-06	463.89
375 K, 1793.4 kPa	1.2e-06	461.01
375 K, 2026.3 kPa	1.04e-06	457.7
375 K, 2290.4 kPa	9.12e-07	453.87
375 K, 2599.9 kPa	7.94e-07	449.23
375 K, 2933.1 kPa	6.9e-07	444.04
375 K, 3140.5 kPa	6.38e-07	440.69
375 K, 3379.2 kPa	5.88e-07	436.74
